Assay results taken from publication PMC10939098 (Emerging Microbes & Infections, 2024).
≈ marks a conversion by molar mass, not a printed value.

Columns and labels:
[1] = test system: PER-producing P. aeruginosa clinical isolates; assay: microbe, parasite or virus in culture; assay type: cell-based, Pseudomonas aeruginosa; conditions: for % resistance: share of isolates resistant
Recombinant PAO1 strains = assay: Broth microdilution MIC, recombinant PAO1 strains carrying blaPER; assay type: cell-based; conditions: Pseudomonas aeruginosa
[2] = test system: PAO1 transconjugants carrying blaPER-1 plasmids; assay: Broth microdilution MIC, transconjugants and recipient PAO1-Rrif; assay type: cell-based; conditions: Pseudomonas aeruginosa
PER-4 [3] = target: T1, PER-4 (Pseudomonas aeruginosa, UniProt P37321, S135T); assay: Direct competition inhibition assay with nitrocefin, PER-4; assay type: biochemical; conditions: for fold higher IC50 value against PER-4 than against wild-type PER-1: PER-4 vs PER-1
T1 sequence (P37321 27-308 S135T): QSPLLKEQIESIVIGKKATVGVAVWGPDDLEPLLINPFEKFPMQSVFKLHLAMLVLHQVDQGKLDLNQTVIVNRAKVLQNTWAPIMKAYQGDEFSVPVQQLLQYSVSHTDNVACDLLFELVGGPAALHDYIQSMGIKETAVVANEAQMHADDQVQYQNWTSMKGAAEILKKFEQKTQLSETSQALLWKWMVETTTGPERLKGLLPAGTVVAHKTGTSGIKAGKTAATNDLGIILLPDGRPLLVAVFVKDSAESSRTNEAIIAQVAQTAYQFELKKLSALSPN

PER-1 [4] = target: T2, PER-1 (Pseudomonas aeruginosa, UniProt P37321); assay: Direct competition inhibition assay with nitrocefin, PER-1; assay type: biochemical
T2 sequence (P37321 27-308): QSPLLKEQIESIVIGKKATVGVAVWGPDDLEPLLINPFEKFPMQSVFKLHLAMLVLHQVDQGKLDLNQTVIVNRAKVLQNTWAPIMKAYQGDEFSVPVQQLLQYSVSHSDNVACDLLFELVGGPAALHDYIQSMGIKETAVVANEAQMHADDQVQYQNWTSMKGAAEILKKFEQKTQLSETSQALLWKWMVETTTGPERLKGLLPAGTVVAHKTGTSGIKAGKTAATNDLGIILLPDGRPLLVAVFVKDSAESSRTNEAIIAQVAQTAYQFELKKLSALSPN

PER-4 [5] = target: T1, PER-4; assay: Steady-state enzyme kinetics, purified PER-4; assay type: biochemical; conditions: for Km / kcat: room temperature, 1×PBS pH 7.2
PER-1 [6] = target: T2, PER-1; assay: Steady-state enzyme kinetics, purified PER-1; assay type: biochemical
[7] = substrate: CC(C)(O/N=C(\C(=O)N[C@@H]1C(=O)N2C(C(=O)[O-])=C(C[n+]3ccccc3)CS[C@H]12)c1csc(N)n1)C(=O)O; assay: Steady-state enzyme kinetics, purified PER-1; assay type: biochemical, Pseudomonas aeruginosa; conditions: other: PER-1, room temperature, 1×PBS pH 7.2
[8] = substrate: O=C(Cc1cccs1)N[C@@H]1C(=O)N2C(C(=O)O)=C(/C=C/c3ccc([N+](=O)[O-])cc3[N+](=O)[O-])CS[C@H]12; assay: Steady-state enzyme kinetics, purified PER-1; assay type: biochemical, Pseudomonas aeruginosa; conditions: other: PER-1, room temperature, 1×PBS pH 7.2
[9] = PAO1, strain PAO1-pGK1900 (empty vector)
[10] = PAO1, recipient strain PAO1-R^rif
[11] = PAO1, transconjugant PAO1/pPA268
[12] = PAO1, transconjugant PAO1/pPA272
[13] = PAO1, transconjugant PAO1/pPA282
[14] = PAO1, transconjugant PAO1/pPA975
[15] = PAO1, transconjugant PAO1/pPA1017
[16] = PAO1, transconjugant PAO1/pPA1018
[17] = Pseudomonas aeruginosa, isolate PA268
[18] = Pseudomonas aeruginosa, isolate PA272
[19] = Pseudomonas aeruginosa, isolate PA282
[20] = Pseudomonas aeruginosa, isolate PA975
[21] = Pseudomonas aeruginosa, isolate PA1017
[22] = Pseudomonas aeruginosa, isolate PA1018

Molecule | % resistance ([1]; 56 PER-producing PA strains) [%] | MIC50 ([1]; Pseudomonas aeruginosa) [µg/mL] | MIC90 ([1]; Pseudomonas aeruginosa) [µg/mL] | MIC (Recombinant PAO1 strains; PAO1) [µg/mL] | MIC (Recombinant PAO1 strains; [9]) [µg/mL] | MIC (Recombinant PAO1 strains; PAO1, strain PAO1-pGK1900-PER1) [µg/mL] | MIC (Recombinant PAO1 strains; PAO1, strain PAO1-pGK1900-PER4) [µg/mL] | MIC [2, 11] [µg/mL] | MIC [2, 12] [µg/mL] | MIC [2, 13] [µg/mL] | MIC [2, 14] [µg/mL] | MIC [2, 15] [µg/mL] | MIC [2, 16] [µg/mL] | MIC [1, 17] [µg/mL] | MIC [1, 18] [µg/mL] | MIC [1, 19] [µg/mL] | MIC [1, 20] [µg/mL] | MIC [1, 21] [µg/mL] | MIC [1, 22] [µg/mL] | further results
NCC[C@H](O)C(=O)N[C@@H]1C[C@H](N)[C@@H](O[C@H]2O[C@H](CN)[C@@H](O)[C@H](O)[C@H]2O)[C@H](O)[C@H]1O[C@H]1O[C@H](CO)[C@@H](O)[C@H](N)[C@H]1O [AMK, amikacin] | 94.64 | > 128 | > 128 | – | – | – | – | – | – | – | – | – | – | – | – | – | – | – | – | –
C[C@H]1[C@H](NC(=O)/C(=N\OC(C)(C)C(=O)O)c2csc(N)n2)C(=O)N1S(=O)(=O)O [AZT, aztreonam] | – | – | – | 4 | 8 | > 128 | > 128 | > 128 | > 128 | > 128 | > 128 | > 128 | > 128 | – | – | – | – | – | – | MIC [2, 10]: 2 µg/mL (≈ 4.59 µM)
NC(=O)[C@@H]1CC[C@@H]2CN1C(=O)N2OS(=O)(=O)O [Avibactam] | – | – | – | – | – | – | – | – | – | – | – | – | – | – | – | – | – | – | – | IC50 (PER-4 [3]): 729 µM; Ki (PER-4 [3]): 473 ± 29.2 µM; fold higher IC50 value against PER-4 than against wild-type PER-1 (PER-4 [3]): ~3359 fold; IC50 (PER-1 [4]): 0.217 µM; Ki (PER-1 [4]): 0.191 ± 0.004 µM
CC(C)(O/N=C(\C(=O)N[C@@H]1C(=O)N2C(C(=O)[O-])=C(C[n+]3ccccc3)CS[C@H]12)c1csc(N)n1)C(=O)O [CAZ, ceftazidime] | 100.00 | > 128 | > 128 | 1 | 2 | > 128 | > 128 | > 128 | > 128 | > 128 | 128 (≈ 234 µM) | > 128 | > 128 | > 128 | > 128 | > 128 | > 128 | > 128 | > 128 | MIC range ([1]; 56 PER-producing PA strains): >128 µg/mL; % resistance ([1]; 56 PER-producing PA strains, listed as ceftazidime): 100%; Km (PER-4 [5]): 726 µM; kcat (PER-4 [5]): 607.66 s⁻¹
CC(C)(O/N=C(\C(=O)N[C@@H]1C(=O)N2C(C(=O)[O-])=C(C[N+]3(CCNC(=O)c4ccc(O)c(O)c4Cl)CCCC3)CS[C@H]12)c1csc(N)n1)C(=O)O [CFDC, Cefiderocol] | – | – | – | 1 | 0.5 | 2 | 2 | 2 (≈ 2.66 µM) | 2 (≈ 2.66 µM) | 2 (≈ 2.66 µM) | 2 (≈ 2.66 µM) | 2 (≈ 2.66 µM) | – | 2 (≈ 2.66 µM) | 2 (≈ 2.66 µM) | 2 (≈ 2.66 µM) | 1 (≈ 1.33 µM) | 2 (≈ 2.66 µM) | 1 (≈ 1.33 µM) | MIC [2, 10]: 0.5 µg/mL (≈ 0.665 µM)
O=C(O)[C@H]1/C(=C/CO)O[C@@H]2CC(=O)N21 [Clavulanic acid] | – | – | – | – | – | – | – | – | – | – | – | – | – | – | – | – | – | – | – | IC50 (PER-4 [3]): 0.152 µM; Ki (PER-4 [3]): 0.099 ± 0.0006 µM; fold higher IC50 value against PER-4 than against wild-type PER-1 (PER-4 [3]): ~5.6 fold; IC50 (PER-1 [4]): 0.027 µM; Ki (PER-1 [4]): 0.024 ± 0.0004 µM
CO/N=C(\C(=O)N[C@@H]1C(=O)N2C(C(=O)[O-])=C(C[N+]3(C)CCCC3)CS[C@H]12)c1csc(N)n1 [FEP, cefepime] | – | – | – | 1 | 4 | > 128 | > 128 | 128 (≈ 266 µM) | 128 (≈ 266 µM) | 128 (≈ 266 µM) | 64 (≈ 133 µM) | 128 (≈ 266 µM) | 128 (≈ 266 µM) | – | – | – | – | – | – | MIC [2, 10]: 2 µg/mL (≈ 4.16 µM)
C[C@@H](O)[C@H]1C(=O)N2C(C(=O)O)=C(SCCN=CN)C[C@H]12 [IPM, imipenem] | 92.86 | 16 (≈ 53.4 µM) | 32 (≈ 107 µM) | 1 | – | – | – | – | 2 (≈ 6.68 µM) | – | – | – | 32 (≈ 107 µM) | 16 (≈ 53.4 µM) | 16 (≈ 53.4 µM) | 16 (≈ 53.4 µM) | 16 (≈ 53.4 µM) | 32 (≈ 107 µM) | 32 (≈ 107 µM) | imipenem hydrolysis activity (PER-1 [6]; PER-1): hardly any detectable; MIC range ([1]; 56 PER-producing PA strains): 0.5 to 64 µg/mL; imipenem hydrolysis activity (PER-4 [5]): hardly any detectable
C[C@H]1COc2c(N3CCN(C)CC3)c(F)cc3c(=O)c(C(=O)O)cn1c23 [LEV, levofloxacin] | 82.14 | 16 (≈ 44.3 µM) | 32 (≈ 88.6 µM) | – | – | – | – | – | – | – | – | – | – | – | – | – | – | – | – | MIC range ([1]; 56 PER-producing PA strains): 0.5 to 64 µg/mL
C[C@@H](O)[C@H]1C(=O)N2C(C(=O)O)=C(S[C@@H]3CN[C@H](C(=O)N(C)C)C3)[C@H](C)[C@H]12 [MEM, meropenem] | 91.07 | 16 (≈ 41.7 µM) | 64 (≈ 167 µM) | 0.5 | 1 | 1 | 1 | 1 (≈ 2.61 µM) | 1 (≈ 2.61 µM) | 1 (≈ 2.61 µM) | 2 (≈ 5.22 µM) | 1 (≈ 2.61 µM) | 32 (≈ 83.4 µM) | 16 (≈ 41.7 µM) | 32 (≈ 83.4 µM) | 32 (≈ 83.4 µM) | 16 (≈ 41.7 µM) | 16 (≈ 41.7 µM) | 32 (≈ 83.4 µM) | –
O=C(Cc1cccs1)N[C@@H]1C(=O)N2C(C(=O)O)=C(/C=C/c3ccc([N+](=O)[O-])cc3[N+](=O)[O-])CS[C@H]12 [Nitrocefin] | – | – | – | – | – | – | – | – | – | – | – | – | – | – | – | – | – | – | – | fold lower nitrocefin hydrolysis activity of PER-1 than PER-4 (PER-1 [6]; PER-1 vs PER-4): ~1.7 fold; Km (PER-4 [5]): 18.5 µM; kcat (PER-4 [5]): 224.03 s⁻¹
CCN1CCN(C(=O)N[C@@H](C(=O)N[C@@H]2C(=O)N3[C@@H]2SC(C)(C)[C@@H]3C(=O)O)c2ccccc2)C(=O)C1=O [PIP, piperacillin] | 98.21 | > 128 | > 128 | 4 | – | 32 | 16 | > 128 | > 128 | > 128 | 128 (≈ 247 µM) | 128 (≈ 247 µM) | > 128 | > 128 | > 128 | > 128 | 128 (≈ 247 µM) | > 128 | > 128 | –
C[C@]1(Cn2ccnn2)[C@H](C(=O)O)N2C(=O)C[C@H]2S1(=O)=O [Tazobactam] | – | – | – | – | – | – | – | – | – | – | – | – | – | – | – | – | – | – | – | IC50 (PER-4 [3]): 1090 µM; Ki (PER-4 [3]): 707 ± 97.7 µM; fold higher IC50 value against PER-4 than against wild-type PER-1 (PER-4 [3]): ~3002 fold; IC50 (PER-1 [4]): 0.363 µM; Ki (PER-1 [4]): 0.32 ± 0.0131 µM
colistin [CST] | 0.00 | – | – | – | – | – | – | – | – | – | – | – | – | – | – | – | – | – | – | MIC50 ([1]; 56 PER-producing PA strains): 2 µg/mL; MIC90 ([1]; 56 PER-producing PA strains): 2 µg/mL; MIC range ([1]; 56 PER-producing PA strains): 0.25 to 2 µg/mL
PER-1 (Pseudomonas aeruginosa) (protein) QSPLLKEQIESIVIGKKATVGVAVWGPDDLEPLLINPFEKFPMQSVFKLHLAMLVLHQVDQGKLDLNQTVIVNRAKVLQNTWAPIMKAYQGDEFSVPVQQLLQYSVSHSDNVACDLLFELVGGPAALHDYIQSMGIKETAVVANEAQMHADDQVQYQNWTSMKGAAEILKKFEQKTQLSETSQALLWKWMVETTTGPERLKGLLPAGTVVAHKTGTSGIKAGKTAATNDLGIILLPDGRPLLVAVFVKDSAESSRTNEAIIAQVAQTAYQFELKKLSALSPN | – | – | – | – | – | – | – | – | – | – | – | – | – | – | – | – | – | – | – | Km [7]: 668.75 µM; kcat [7]: 537 s⁻¹; Km [8]: 72.92 µM; kcat [8]: 512 s⁻¹
